From ChEMBL document CHEMBL1649570, “Pharmacokinetics and ex vivo pharmacodynamic antimalarial activity of dihydroartemisinin-piperaquine in patients with uncomplicated falciparum malaria in Vietnam” (Antimicrob Agents Chemother, 2009)
In brackets after ≈: the same amount, converted by molar mass. Values belong to the compound of their own block, whether it stands above or below them. Activity calls are given as the source filed them. No cut-off for these calls is given here.

Tests used:
[1] = Cmax in Plasmodium falciparum-infected patient at 40 mg/kg, po; format: ADME, organism-based; set-up: dose 40 mg/kg, route oral; conditions: human, in vivo
[2] = Tmax in Plasmodium falciparum-infected patient at 40 mg/kg, po; format: ADME, organism-based; set-up: dose 40 mg/kg, route oral; conditions: human, in vivo
[3] = AUC in Plasmodium falciparum-infected patient at 40 mg/kg, po; format: ADME, organism-based; set-up: dose 40 mg/kg, route oral; conditions: human, plasma
[4] = tested on: Homo sapiens; assay: AUC (0 to infinity) in Plasmodium falciparum-infected patient at 40 mg/kg, po; format: ADME, organism-based, Plasma; set-up: time infinity, dose 40 mg/kg, route oral; conditions: in vivo
[5] = Half life in Plasmodium falciparum-infected patient at 40 mg/kg, po; format: ADME, organism-based; set-up: dose 40 mg/kg, route oral; conditions: human, in vivo
[6] = tested on: Homo sapiens; assay: Apparent oral clearance in Plasmodium falciparum-infected patient at 40 mg/kg, po; format: ADME, organism-based; set-up: dose 40 mg/kg, route oral; conditions: in vivo
[7] = tested on: Plasmodium falciparum; assay: Antiplasmodial activity against Plasmodium falciparum D6; format: functional
[8] = tested on: Plasmodium falciparum; assay: Antiplasmodial activity against Plasmodium falciparum K1; format: functional
[9] = tested on: Plasmodium falciparum; assay: Antiplasmodial activity against Plasmodium falciparum K1 assessed as inhibition of [3H]hypoxanthine incorporation by beta counting; format: functional, organism-based
[10] = tested on: Plasmodium falciparum; assay: Antiplasmodial activity against Plasmodium falciparum D6 isolated from po dosed patient with malaria; format: functional
[11] = tested on: Plasmodium falciparum; assay: Antiplasmodial activity against Plasmodium falciparum K1 isolated from po dosed patient with malaria; format: functional
[12] = Cmax in Plasmodium falciparum-infected patient at 320 mg/kg, po; format: ADME, organism-based; set-up: dose 320 mg/kg, route oral; conditions: human, in vivo
[13] = Tmax in Plasmodium falciparum-infected patient at 320 mg/kg, po; format: ADME, organism-based; set-up: dose 320 mg/kg, route oral; conditions: human, in vivo
[14] = AUC in Plasmodium falciparum-infected patient at 320 mg/kg, po; format: ADME, organism-based; set-up: dose 320 mg/kg, route oral; conditions: human, plasma
[15] = AUC (0 to infinity) in Plasmodium falciparum-infected patient at 320 mg/kg, po; format: ADME, organism-based; set-up: time infinity, dose 320 mg/kg, route oral; conditions: human, plasma
[16] = Half life in Plasmodium falciparum-infected patient at 320 mg/kg, po; format: ADME, organism-based; set-up: dose 320 mg/kg, route oral; conditions: human, in vivo
[17] = tested on: Plasmodium falciparum; assay: Antiplasmodial activity against Plasmodium falciparum K1 isolated from po dosed patient with malaria after 7 days; format: functional, organism-based
[18] = tested on: Plasmodium falciparum; assay: Antiplasmodial activity against Plasmodium falciparum D6 isolated from po dosed patient with malaria after 7 days; format: functional, organism-based
[19] = tested on: Plasmodium falciparum; assay: Antiplasmodial activity against Plasmodium falciparum D6 isolated from patient with malaria at 25 ng/ml after 28 days; format: functional, organism-based
[20] = tested on: Plasmodium falciparum; assay: Antiplasmodial activity against Plasmodium falciparum K1 isolated from patient with malaria at 25 ng/ml after 28 days; format: functional, organism-based
[21] = Plasma concentration in Plasmodium falciparum-infected patient at 320 mg/kg, po after 28 days; format: ADME, organism-based; set-up: dose 320 mg/kg, route oral; conditions: human

SMILES: C[C@H]1[C@@H](O)O[C@@H]2O[C@@]3(C)CC[C@H]4[C@H](C)CC[C@@H]1[C@@]24OO3 [ARTENIMOL]
Cmax [1]: 698 ng/mL | Tmax [2]: 2.8 h | AUC [3]: 1950 ng·h/mL | AUC [4]: 1949 ng·h/mL | half-life [5]: 0.85 h | CL/F [6]: 19.8 mL/min/kg | IC90 [7]: 4.5 nM | IC90 [8]: 4.85 nM | IC50 [9]: 2.57 nM | ID90 [10]: 0.639 µg/mL (≈ 2.25 µM) | ID90 [11]: 0.513 µg/mL (≈ 1.8 µM)

Cmax [12]: 568 ng/mL | Tmax [13]: 5.7 h | AUC [14]: 44400 ng·h/mL | AUC(0-inf) [15]: 56400 ng·h/mL | half-life [16]: 427 h | IC90 [7]: 67.5 nM | IC90 [8]: 122 nM | IC50 [9]: 82.1 nM | concentration at 672 h [21]: 25 ng/mL
SMILES: Clc1ccc2c(N3CCN(CCCN4CCN(c5ccnc6cc(Cl)ccc56)CC4)CC3)ccnc2c1 [PIPERAQUINE]
Cp [17]: 25 ng/mL | Cp [18]: 25 ng/mL | Activity [19]: inactive | Activity [20]: inactive
